Measurements from patent US7635691B2, “Use of CDP-choline for the prophylactic treatment of cerebral ischemia” (Ferrer Internacional, S.A., priority 2000, dated 2009).

Test system: caspases 1, 2, 3, 6 and 8
Test: Caspase expression (apoptosis markers) after permanent middle cerebral artery occlusion, model of cortical cerebral ischemia in the rat
Type: in vivo
Protocol: The effect of CDP-Choline on deferred nerve cell death (apoptosis) has been assessed in a model of cortical cerebral ischemia in the rat in accordance with the following experimental protocol:
All cerebral infarction tests were performed in male Sprague-Dawley rats weighing 220-270 g. Animals were housed, with free access to food and water, in temperature- and humidity-controlled rooms with a 12/12 h light-dark cycle.
Cerebral ischemia was induced by a permanent proximal occlusion of the middle cerebral artery using electrocoagulation. Under deep anesthesia, the rat head was clipped and an incision was made between the left ear and the left eye. Then, the cranium was exposed by sectioning the temporal muscle. Craniotomy was performed using a 1-2 mm drill behind the scaly fissure. The dura mater was drilled in order to expose the middle cerebral artery arm which was permanently coagulated.
Rats were randomly divided into three groups:
(a) After 30 minutes of ischemia, the animals in this group were treated with CDP-Choline (500 mg/kg) in 0.9% sterile physiologic saline (0.1 ml) administered intraperitoneally. This group is depicted in FIGS. 1 through 5 as “After.”
(b) Since 24 hours before ischemia and after 30 minutes of ischemia, the animals in this group received the same treatment as in group (a). This group is depicted in FIGS. 1 through 5 as “Before.”
(c) The animals in this group were used as control. After ischemia, they were treated with 0.9% physiologic saline vehicle (0.1 ml) administered intraperitoneally. This group is depicted in FIGS. 1 through 5 as “Control.”
The animals were allowed to recover at different times (30 min and 1, 4, 8, 12, 24 and 48 hours) before terminal anesthesia with ethyl ether. […]
For assessment of the effect of treatment, the expression of caspases 1, 2, 3, 6 and 8, as markers of apoptosis process, was measured 12 hours after infarction induction, whose results are shown in FIGS. 1, 2, 3, 4, and 5, respectively. […]

With `C[N+](C)(C)CCOP(=O)(O)OP(=O)([O-])OC[C@H]1O[C@@H](n2ccc(N)nc2=O)[C@H](O)[C@@H]1O` [CDP-Choline, cytidine-diphosphate-choline] the “caspase level, treatment before and after ischemia compared with treatment only after ischemia” value (500 mg/kg intraperitoneally from 24 hours before ischemia and 30 minutes after ischemia ('Before') vs only 30 minutes after ischemia ('After'), 12 hours after infarction induction) was “decreases caspase level more significantly than when administered only after infarction induction”, the “expression of caspases 1, 2, 3, 6 and 8 as markers of apoptosis process, treated vs control” value (male Sprague-Dawley rats, CDP-Choline 500 mg/kg intraperitoneally, groups 'After' and 'Before' vs saline control, measured 12 hours after infarction induction, figures in immunofluorescence units) was “significant differences between treated and control animals” and the “nerve cell apoptosis in the penumbra area” value (summary statement in the description, rat focal ischemia model) was “reduces nerve cell apoptosis in the penumbra area”.
